The values that follow come from article PMC8561395 (Biochemistry, 2021).

Structures are written as SMILES. Read-outs that look alike come from different tables or passages of the source.

In test [1] the target is T1, SsoPTP (Saccharolobus solfataricus, UniProt Q97VZ7).
T1 sequence (Q97VZ7 1-161): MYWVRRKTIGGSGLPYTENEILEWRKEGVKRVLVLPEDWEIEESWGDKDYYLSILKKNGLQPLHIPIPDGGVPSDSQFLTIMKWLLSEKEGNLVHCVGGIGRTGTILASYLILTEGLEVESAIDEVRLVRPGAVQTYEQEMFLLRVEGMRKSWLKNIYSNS
As to the kind of experiment: Inhibition of SsoPTP activity by buffers, pNPP as substrate.

The test system of test [2] is bovine low molecular weight PTP. Particulars: more strongly than observed for SsoPTP; cited from earlier work.
The target of test [3] is T1, SsoPTP. As to the kind of experiment: Steady-state Michaelis-Menten kinetics with pNPP. Format: biochemical, Sulfolobus solfataricus. Particulars: read-out: KM for pNPP.

As a reminder, the Ki is a measure of affinity in units of concentration, obtained from inhibition or displacement. The compound `O=C(O)CC(O)(CC(=O)O)C(=O)O` [Citric acid] returned an inhibitory constant (Ki) on SsoPTP [1] of 8 ± 1 mM.

For `CC(=O)O` [Acetic acid], at SsoPTP [1] (pNPP substrate), the “Inhibition of SsoPTP (in words)” value is “no inhibitory effect”.

With `O=S(=O)(O)CCCN1CCOCC1` [MOPS], on SsoPTP [1] (pNPP substrate), the “Inhibition of SsoPTP (in words)” value is “did not show measurable inhibition”.

On to `O=S(=O)(O)CCN1CCN(CCO)CC1` [HEPES], for which, on SsoPTP [1], the Ki came out at 44 ± 8 mM. Moreover, the “Strength of inhibition of bovine low molecular weight PTP relative to SsoPTP” value in test [2] is reported as “about 10 fold”.

At SsoPTP [1] (pNPP substrate, 100 mM sodium acetate buffer pH 5.0, inhibitor 5–400 mM), `O=S(=O)(O)CCCNC1CCCCC1` [CAPS] displayed an inhibition constant (Ki) of 54 ± 11 mM.

As usually defined, the Km is the concentration of substrate that gives half-maximal velocity. As for `O=[N+]([O-])c1ccc(OP(=O)(O)O)cc1` [pNPP, p-nitrophenyl phosphate], the Michaelis constant (Km) on SsoPTP [3] was found to be 3.4 mM.
